Measurements reported in US7906530B2, “1,7-naphthyridine derivatives as p38 MAP kinase inhibitors” (Laboratorios Almirall, S.A., priority 2006, dated 2011).

How the values were obtained:
[1] = biological target: T1, human p38alfa (SAPKa) enzyme (Homo sapiens, UniProt Q16539); assay: p38alpha enzymatic inhibition assay (FRET, ATF2 phosphorylation); format: biochemical; conditions: 1 h pre-incubation; biotinylated ATF2 0.62 μM, ATP 60 μM; 1 h at 25° C.; read-out: p38α IC50
T1 construct: purchased University of Dundee

[2] = test system: TNFα production in human monocytic cell line THP-1; assay: Functional assay: inhibition of LPS-induced TNFα production in THP-1 cells; format: cell-based; conditions: LPS 10 μg/ml, 5 h at 37° C., TNFα ELISA

T1 sequence (Q16539 whole entry): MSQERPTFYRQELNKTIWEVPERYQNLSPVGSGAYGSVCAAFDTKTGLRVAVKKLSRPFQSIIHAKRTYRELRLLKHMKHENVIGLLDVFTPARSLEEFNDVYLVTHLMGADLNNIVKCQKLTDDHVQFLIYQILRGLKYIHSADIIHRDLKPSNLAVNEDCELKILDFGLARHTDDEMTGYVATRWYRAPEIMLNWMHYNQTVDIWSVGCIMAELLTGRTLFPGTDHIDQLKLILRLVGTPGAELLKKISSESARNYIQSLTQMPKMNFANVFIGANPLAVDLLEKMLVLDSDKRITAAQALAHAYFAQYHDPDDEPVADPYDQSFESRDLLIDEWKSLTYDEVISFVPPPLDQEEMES

Row | Structure (SMILES) | IC50 [1] | IC50 [2]
1 | CC(C)(C)N1CCC(c2cc(-c3ccc(F)cc3Cl)c3cc[n+]([O-])c(-c4c(F)cccc4F)c3n2)CC1 [Example 48, 2-(1-Tert-butylpiperidin-4-yl)-4-(2-chloro-4-fluorophenyl)-8-(2,6-difluorophenyl)-1,7-naphthyridine 7-oxide] | 1.6 nM | 3 nM
2 | [O-][n+]1ccc2c(-c3ccc(F)cc3F)cc(C3CCNCC3)nc2c1-c1c(F)cccc1F [Example 29, 4-(2,4-Difluorophenyl)-8-(2,6-difluorophenyl)-2-piperidin-4-yl-1,7-naphthyridine 7-oxide] | 0.9 nM | 2.45 nM
3 | [O-][n+]1ccc2c(-c3ccccc3Cl)cc(C3CCNCC3)nc2c1-c1c(F)cccc1F [Example 52, 4-(2-Chlorophenyl)-8-(2,6-difluorophenyl)-2-piperidin-4-yl-1,7-naphthyridine 7-oxide] | – | 4.2 nM
4 | CC(C)(C)N1CCC(c2cc(-c3ccccc3Cl)c3cc[n+]([O-])c(-c4c(Cl)cccc4Cl)c3n2)CC1 [Example 59, 2-(1-Tert-butylpiperidin-4-yl)-4-(2-chlorophenyl)-8-(2,6-dichlorophenyl)-1,7-naphthyridine 7-oxide] | 0.41 nM | 0.1 nM
5 | [O-][n+]1ccc2c(-c3ccc(F)cc3Cl)ccnc2c1-c1c(F)cccc1F [Example 39, 4-(2-Chloro-4-fluorophenyl)-8-(2,6-difluorophenyl)-1,7-naphthyridine 7-oxide] | 87 nM | 63 nM
6 | [O-][n+]1ccc2c(-c3ccc(F)cc3F)ccnc2c1-c1c(F)cccc1F [Example 19, 4-(2,4-Difluorophenyl)-8-(2,6-difluorophenyl)-1,7-naphthyridine 7-oxide] | – | 223 nM
7 | [O-][n+]1ccc2c(-c3ccc(F)cc3F)cc(N3CCNCC3)nc2c1-c1c(F)cccc1F [Example 91, 4-(2,4-Difluorophenyl)-8-(2,6-difluorophenyl)-2-piperazin-1-yl-1,7-naphthyridine 7-oxide] | – | 4.1 nM
8 | [O-][n+]1ccc2c(-c3ccc(F)cc3F)cc(NC3CCNCC3)nc2c1-c1c(Cl)cccc1Cl [Example 86, 8-(2,6-Dichlorophenyl)-4-(2,4-difluorophenyl)-N-piperidin-4-yl-1,7-naphthyridin-2-amine 7-oxide] | 0.37 nM | 0.9 nM
9 | [O-][n+]1ccc2c(-c3ccc(F)cc3F)cc(N3CCNCC3)nc2c1-c1c(Cl)cccc1Cl [Example 90, 8-(2,6-Dichlorophenyl)-4-(2,4-difluorophenyl)-2-piperazin-1-yl-1,7-naphthyridine 7-oxide] | 1.1 nM | 0.8 nM
10 | [O-][n+]1ccc2c(-c3ccccc3Cl)cc(C3CCNCC3)nc2c1-c1c(Cl)cccc1Cl [Example 53, 4-(2-Chlorophenyl)-8-(2,6-dichlorophenyl)-2-piperidin-4-yl-1,7-naphthyridine 7-oxide] | 0.34 nM | 0.53 nM
11 | [O-][n+]1ccc2c(-c3ccc(F)cc3F)cc(OC3CCNCC3)nc2c1-c1c(F)cccc1F [Example 96, 4-(2,4-Difluorophenyl)-8-(2,6-difluorophenyl)-2-(piperidin-4-yloxy)-1,7-naphthyridine 7-oxide] | 0.22 nM | 3.2 nM
12 | [O-][n+]1ccc2c(-c3ccc(F)cc3Cl)ccnc2c1-c1c(Cl)cccc1Cl [Example 40, 4-(2-Chloro-4-fluorophenyl)-8-(2,6-dichlorophenyl)-1,7-naphthyridine 7-oxide] | – | 43.5 nM
13 | [O-][n+]1ccc2c(-c3ccc(F)cc3F)cc(OC3CCNCC3)nc2c1-c1c(Cl)cccc1Cl [Example 95, 8-(2,6-Dichlorophenyl)-4-(2,4-difluorophenyl)-2-(piperidin-4-yloxy)-1,7-naphthyridine 7-oxide] | 0.92 nM | 0.2 nM
14 | CC(C)(C)N1CCC(c2cc(-c3ccc(F)cc3Cl)c3cc[n+]([O-])c(-c4c(Cl)cccc4Cl)c3n2)CC1 [Example 49, 2-(1-Tert-butylpiperidin-4-yl)-4-(2-chloro-4-fluorophenyl)-8-(2,6-dichlorophenyl)-1,7-naphthyridine 7-oxide] | – | 0.46 nM
15 | CC(C)(C)N1CCC(c2cc(-c3ccc(F)cc3F)c3cc[n+]([O-])c(-c4c(F)cccc4F)c3n2)CC1 [Example 35, 2-(1-Tert-butylpiperidin-4-yl)-4-(2,4-difluorophenyl)-8-(2,6-difluorophenyl)-1,7-naphthyridine 7-oxide] | 2.8 nM | 3.4 nM
16 | CC(C)(C)N1CCC(c2cc(-c3ccc(F)cc3F)c3cc[n+]([O-])c(-c4c(Cl)cccc4Cl)c3n2)CC1 [Example 36, 2-(1-Tert-butylpiperidin-4-yl)-8-(2,6-dichlorophenyl)-4-(2,4-difluorophenyl)-1,7-naphthyridine 7-oxide] | 1.2 nM | 1.6 nM
17 | [O-][n+]1ccc2c(-c3ccc(F)cc3Cl)cc(C3CCNCC3)nc2c1-c1c(Cl)cccc1Cl [Example 43, 4-(2-Chloro-4-fluorophenyl)-8-(2,6-dichlorophenyl)-2-piperidin-4-yl-1,7-naphthyridine 7-oxide] | – | 2.9 nM
